This is an account of results in ChEMBL document CHEMBL5579892, “Rational Design, Synthesis, and Structure-Activity Relationship of a Novel Isoquinolinone-Based Series of HBV Capsid Assembly Modulators Leading to the Identification of Clinical Candidate AB-836” (J Med Chem, 2024).

≈ marks a conversion by molar mass, not a printed value.

Data set [1] relates to Hepatitis B virus. Description: Antiviral activity against HBV infected in HepDE19 cells. Type of data set: functional, organism-based.
A short description of data set [2]: Cytotoxicity against human HepDE19 cells by CellTiter-Glo analysis. It is filed as toxicity, cell-based. On the technique in general: ATP-based viability assays read luminescence as a measure of living cells.
Data set [3] is described as follows: Kinetic solubility in PBS at pH 7.4. It is filed as physicochemical. The conditions noted are these: read-out: Kinetic_solubility.
The nature of data set [4]: Microsomal stability in mouse liver microsomes assessed as intrinsic clearance. It is filed as ADME, Microsome. The following applies: read-out: CLH. (In general: Liver microsomes are a subcellular fraction often used to study metabolism.)
The nature of data set [5]: Microsomal stability in human liver microsomes assessed as intrinsic clearance. It is filed as ADME, Microsome. The conditions noted are these: read-out: CLH.

In the case of `C[C@H](c1c[nH]c(=O)c2c(F)cccc12)N(C)C(=O)Nc1ccc(F)c(Cl)c1`, the EC50 in data set [1] came out at 40 nM. In data set [2], this compound yielded a CC50 above 25 µM. For the same compound, the solubility kinetic in data set [3] is 146 µM (≈ 57.2 µg/mL).

Turning to `COc1ccc2c(=O)[nH]cc([C@@H](C)N(C)C(=O)Nc3ccc(F)c(Cl)c3)c2c1`, in data set [1], the EC50 amounted to 1400 nM. Also, in data set [2], the CC50 is above 25 µM. Moreover, in data set [3], the solubility kinetic came out at 42 µM (≈ 17 µg/mL).

For the compound `C[C@H](c1c[nH]c(=O)c2cc(F)c(F)cc12)N(C)C(=O)Nc1ccc(F)cc1`, the EC50 in data set [1] was found to be 24 nM. This compound came in with a CC50 in data set [2] above 25 µM. Further, the microsomal CLint was 35 µL/min/mg in data set [4] and 17 µL/min/mg in data set [5]. In addition, the solubility kinetic in data set [3] came out at 190 µM (≈ 71.3 µg/mL).

In the case of `CCCCN(Cc1c[nH]c(=O)c2ccccc12)C(=O)Nc1ccc(F)c(Cl)c1`, the response in data set [1] was half-maximal at 80 nM (EC50). The same compound came in with a CC50 in data set [2] above 25 µM.

On to `C[C@H](c1c[nH]c(=O)c2c(F)cc(F)cc12)N(C)C(=O)Nc1ccc(F)c(Cl)c1`, for which the midpoint of the response in data set [1], the EC50, lay at 19 nM. Also, the CC50 in data set [2] was above 25 µM. Moreover, the microsomal CLint in data set [4] and in data set [5] was 25 µL/min/mg each time. In data set [3], the solubility kinetic was determined as 97 µM (≈ 39.8 µg/mL).

For the compound `COCCCN(C(=O)Nc1ccc(F)c(Cl)c1)C(C)c1c[nH]c(=O)c2ccccc12` (stereo not given), the response in data set [1] was half-maximal at 32 nM (EC50). The same compound registered a CC50 in data set [2] above 25 µM. Besides, the microsomal CLint in data set [4] came out at 182 µL/min/mg; in data set [5] it was 54 µL/min/mg.

In the case of `CCCCN(C(=O)Nc1ccc(F)c(Cl)c1)C(C)c1c[nH]c(=O)c2ccccc12` (stereo not given), in data set [1], a half-maximal effect (EC50) was put at 6 nM. In data set [2], the CC50 was above 25 µM. Also, the microsomal CLint in data set [4] was determined as 243 µL/min/mg; in data set [5], 143 µL/min/mg.

With `C[C@H](c1c[nH]c(=O)c2cc(F)c(F)cc12)N(C)C(=O)Nc1ccc(F)c(Cl)c1`, the EC50 in data set [1] is 7 nM. Besides, in data set [2], the CC50 is above 25 µM. Further, the microsomal CLint was 23 µL/min/mg in data set [4] and 32 µL/min/mg in data set [5]. In data set [3], the solubility kinetic amounted to 42 µM (≈ 17.2 µg/mL).

Take `O=C(NCc1c[nH]c(=O)c2ccccc12)Nc1ccc(F)c(Cl)c1`: a half-maximal response in data set [1] (EC50) required 6800 nM. The half-maximal cytotoxic concentration (CC50) in data set [2] was above 25 µM.

In data set [1], `COc1ccc2c([C@@H](C)N(C)C(=O)Nc3ccc(F)c(Cl)c3)c[nH]c(=O)c2c1` yielded a concentration for a half-maximal effect (EC50) of 180 nM. Moreover, the 50% cytotoxic concentration (CC50) in data set [2] is above 25 µM. Also, the solubility kinetic in data set [3] is below 4 µM.

In data set [1], `C[C@H](c1c[nH]c(=O)c2cc(F)c(F)cc12)N(C)C(=O)[C@H]1Cc2ccccc2N1` yielded an EC50 of 300 nM. This compound also had a CC50 in data set [2] above 25 µM.

For `COc1cccc2c(=O)[nH]cc([C@@H](C)N(C)C(=O)Nc3ccc(F)c(Cl)c3)c12`, in data set [1], the EC50 was 1500 nM. Also, the CC50 in data set [2] is above 25 µM.

`CN(Cc1c[nH]c(=O)c2ccccc12)C(=O)Nc1ccc(F)c(Cl)c1` registered an EC50 in data set [1] of 470 nM. Besides, the CC50 in data set [2] was above 25 µM.

In data set [1], `C[C@H](c1c[nH]c(=O)c2cc(F)c(F)cc12)N(C)C(=O)[C@@H]1Cc2ccccc2N1` came in with an EC50 of 22 nM. For the same compound, the CC50 in data set [2] was above 25 µM. The values for the microsomal CLint in data set [4] and in data set [5] were 375 µL/min/mg and 28 µL/min/mg, respectively. Further, in data set [3], the solubility kinetic turned out to be 62 µM (≈ 23.8 µg/mL).

In data set [1], `C[C@H](c1c[nH]c(=O)c2cc(F)c(F)cc12)N(C)C(=O)c1cc2ccc(F)cc2[nH]1` showed an EC50 of 22 nM. Besides, the CC50 in data set [2] is above 25 µM. The microsomal CLint stood at 33 µL/min/mg in data set [4] and 13 µL/min/mg in data set [5]. Moreover, the solubility kinetic in data set [3] worked out at 12 µM (≈ 4.79 µg/mL).

Turning to `C[C@H](c1c[nH]c(=O)c2c(F)c(F)ccc12)N(C)C(=O)Nc1ccc(F)c(Cl)c1`, in data set [1], the EC50 amounted to 15 nM. In data set [2], this compound yielded a cytotoxic concentration (CC50) above 25 µM. For the same compound, the microsomal CLint was determined as 32 µL/min/mg in data set [4] and 28 µL/min/mg in data set [5]. Also, the solubility kinetic in data set [3] was found to be 92 µM (≈ 37.7 µg/mL).

Take `COCCN(C(=O)Nc1ccc(F)c(Cl)c1)C(C)c1c[nH]c(=O)c2ccccc12` (stereo not given): the 50% effective concentration (EC50) in data set [1] turned out to be 91 nM. In data set [2], this compound displayed a cytotoxic concentration (CC50) above 25 µM. Also, the microsomal CLint in data set [4] is 238 µL/min/mg; in data set [5], 69 µL/min/mg.

In data set [1], `C[C@H](c1c[nH]c(=O)c2ccc(Cl)cc12)N(C)C(=O)Nc1ccc(F)c(Cl)c1` gave an EC50 of 120 nM. For the same compound, the CC50 in data set [2] was above 25 µM. The solubility kinetic in data set [3] was 18 µM (≈ 7.35 µg/mL).

`C[C@H](c1c[nH]c(=O)c2cc(F)c(F)cc12)N(C)C(=O)Nc1ccccc1`: in data set [1], it took 110 nM to reach a half-maximal effect (EC50). Further, the CC50 in data set [2] is above 25 µM.

On to `C[C@H](c1c[nH]c(=O)c2cc(F)c(F)cc12)N(C)C(=O)c1nc2ccccc2[nH]1`, for which the concentration for a half-maximal effect (EC50) in data set [1] was 760 nM. The CC50 in data set [2] is above 25 µM.

For the compound `C[C@H](c1c[nH]c(=O)c2ccc(F)cc12)N(C)C(=O)Nc1ccc(F)c(Cl)c1`, in data set [1], the midpoint of the response, the EC50, lay at 32 nM. Moreover, the CC50 in data set [2] is above 25 µM. Further, in data set [3], the solubility kinetic stood at 82 µM (≈ 32.1 µg/mL).

With `C[C@H](c1c[nH]c(=O)c2cc(F)c(F)cc12)N(C)C(=O)Nc1cccc(F)c1F`, the EC50 in data set [1] is 290 nM. The CC50 in data set [2] is above 25 µM.

Compound `CC(c1c[nH]c(=O)c2ccccc12)N(C(=O)Nc1ccc(F)c(Cl)c1)C1CC1` (stereo not given) gave an EC50 in data set [1] of 55 nM. In data set [2], this compound showed a half-maximal cytotoxic concentration (CC50) above 25 µM. In addition, the microsomal CLint in data set [4] came out at 172 µL/min/mg; in data set [5], 152 µL/min/mg.

`CCCN(Cc1c[nH]c(=O)c2ccccc12)C(=O)Nc1ccc(F)c(Cl)c1` gave an EC50 in data set [1] of 60 nM. For the same compound, the CC50 in data set [2] is above 25 µM.

As to `CCN(C(=O)Nc1ccc(F)c(Cl)c1)C(C)c1c[nH]c(=O)c2ccccc12` (stereo not given), the EC50 in data set [1] came to 25 nM. In addition, the CC50 in data set [2] was above 25 µM. The microsomal CLint in data set [4] amounted to 32 µL/min/mg; in data set [5], 62 µL/min/mg.

In turn, `C[C@H](c1c[nH]c(=O)c2c(Cl)cccc12)N(C)C(=O)Nc1ccc(F)c(Cl)c1` displayed an EC50 in data set [1] of 85 nM. In data set [2], this compound yielded a CC50 above 25 µM. Also, the solubility kinetic in data set [3] is below 4 µM.

In turn, `CC(c1c[nH]c(=O)c2cc(Cl)ccc12)N(C)C(=O)Nc1ccc(F)c(Cl)c1` (racemic) came in with a concentration for a half-maximal effect (EC50) in data set [1] of 200 nM. Moreover, in data set [2], the CC50 is above 25 µM.

The compound `COc1ncc(CNC(=O)Nc2ccc(F)c(Cl)c2)c2ccccc12` showed a concentration giving a half-maximal response (EC50) in data set [1] of 9000 nM.

Turning to `COc1ncc(CN(C)C(=O)Nc2ccc(F)c(Cl)c2)c2ccccc12`, the EC50 in data set [1] was 2000 nM.

`CC(c1c[nH]c(=O)c2ccccc12)N(CCCO)C(=O)Nc1ccc(F)c(Cl)c1` (stereo not given) had an EC50 in data set [1] of 10 nM. This compound showed a CC50 in data set [2] above 25 µM. Besides, the microsomal CLint is 185 µL/min/mg in data set [4] and 71 µL/min/mg in data set [5].

The compound `COCCN(Cc1c[nH]c(=O)c2ccccc12)C(=O)Nc1ccc(F)c(Cl)c1` came in with an EC50 in data set [1] of 470 nM. Besides, in data set [2], the CC50 is above 25 µM.

For `CCCN(C(=O)Nc1ccc(F)c(Cl)c1)[C@H](C)c1c[nH]c(=O)c2ccccc12`, the EC50 in data set [1] came out at 9 nM. Besides, the CC50 in data set [2] was above 25 µM. The values for the microsomal CLint in data set [4] and in data set [5] were 190 µL/min/mg and 110 µL/min/mg, respectively.

In data set [1], `O=C(Nc1ccc(F)c(Cl)c1)N(Cc1c[nH]c(=O)c2ccccc12)C1CC1` gave an EC50 of 810 nM. This compound gave a CC50 in data set [2] above 25 µM.

`COCCCN(Cc1c[nH]c(=O)c2ccccc12)C(=O)Nc1ccc(F)c(Cl)c1`: the EC50 in data set [1] amounted to 130 nM. The compound further returned a CC50 in data set [2] above 25 µM.

`CC(C)CN(C(=O)Nc1ccc(F)c(Cl)c1)C(C)c1c[nH]c(=O)c2ccccc12` (stereo not given): the EC50 in data set [1] was determined as 7 nM. Besides, the half-maximal cytotoxic concentration (CC50) in data set [2] was above 25 µM. In addition, the values for the microsomal CLint in data set [4] and in data set [5] were above 300 µL/min/mg and 260 µL/min/mg, respectively.

For `CCN(Cc1c[nH]c(=O)c2ccccc12)C(=O)Nc1ccc(F)c(Cl)c1`, the EC50 in data set [1] amounted to 160 nM. In data set [2], this compound came in with a CC50 above 25 µM.

For orientation: EC50 means the concentration that produces a half-maximal response. A lower EC50 goes with greater potency. In general, CC50 refers to the concentration at which the toxic effect on the cells reaches its halfway point.
